# Reference: US10870647B2, “Imidazopyridine derivative, method for preparing same, and pharmaceutical composition containing same as active ingredient for preventing or treating cancer” (DAEGU-GYEONGBUK MEDICAL INNOVATION FOUNDATION, priority 2016, dated 2020)
# Legend:
# Assay in all cases: Kinase selectivity, scanMAX Kinase assay panel (DiscoverX), % control at 1 uM
# Type in all cases: binding
# [1] = target: T1, scanMAX Kinase assay panel (Homo sapiens, UniProt Q14012); conditions: CAMK1; 1 uM; read-out: Percent Control (%)
# T1 construct: purchased DiscoverX
# How it was run: (§1)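 Single-point screen at 1 uM compound in DMSO. Lower % control means stronger inhibition, with the cutoff for activity set at <35%.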
# [2] = target: T2, scanMAX Kinase assay panel (Homo sapiens, UniProt O43283); conditions: LZK; 1 uM; read-out: Percent Control (%)
# T2 construct: purchased DiscoverX
# T2 sequence (O43283 1-966): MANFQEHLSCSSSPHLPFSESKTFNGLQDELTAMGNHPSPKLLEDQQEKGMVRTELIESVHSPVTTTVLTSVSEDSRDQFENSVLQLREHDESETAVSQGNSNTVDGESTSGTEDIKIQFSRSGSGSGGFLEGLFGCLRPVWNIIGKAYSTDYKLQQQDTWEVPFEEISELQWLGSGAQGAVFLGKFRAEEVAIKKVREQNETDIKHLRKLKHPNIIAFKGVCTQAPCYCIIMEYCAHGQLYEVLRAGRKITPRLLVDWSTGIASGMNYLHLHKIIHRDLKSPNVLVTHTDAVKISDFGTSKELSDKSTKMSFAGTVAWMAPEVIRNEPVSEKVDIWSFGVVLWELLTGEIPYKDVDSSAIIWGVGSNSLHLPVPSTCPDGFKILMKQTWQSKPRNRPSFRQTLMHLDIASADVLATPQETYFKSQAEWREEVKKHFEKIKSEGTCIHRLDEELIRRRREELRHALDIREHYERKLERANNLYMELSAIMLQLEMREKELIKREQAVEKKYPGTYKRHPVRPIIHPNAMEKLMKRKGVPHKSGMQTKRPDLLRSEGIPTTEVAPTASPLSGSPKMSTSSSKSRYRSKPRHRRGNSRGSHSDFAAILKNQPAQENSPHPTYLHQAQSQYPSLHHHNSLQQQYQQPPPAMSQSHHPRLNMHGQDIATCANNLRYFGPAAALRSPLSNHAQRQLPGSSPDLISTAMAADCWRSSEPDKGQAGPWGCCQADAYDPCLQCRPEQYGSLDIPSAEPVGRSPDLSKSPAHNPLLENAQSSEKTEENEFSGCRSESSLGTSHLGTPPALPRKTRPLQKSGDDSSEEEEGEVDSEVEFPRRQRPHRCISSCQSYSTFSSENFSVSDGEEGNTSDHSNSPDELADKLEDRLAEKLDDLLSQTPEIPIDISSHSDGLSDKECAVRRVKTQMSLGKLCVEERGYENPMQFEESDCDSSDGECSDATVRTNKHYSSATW
# How it was run: as §1
# [3] = target: T3, scanMAX Kinase assay panel (Homo sapiens, UniProt P36507); conditions: MEK2; 1 uM; read-out: Percent Control (%)
# T3 construct: purchased DiscoverX
# How it was run: as §1
# [4] = target: T4, scanMAX Kinase assay panel (Homo sapiens, UniProt P51617); conditions: IRAK1; 1 uM; read-out: Percent Control (%)
# T4 construct: purchased DiscoverX
# How it was run: as §1
# [5] = target: T5, scanMAX Kinase assay panel (Homo sapiens, UniProt P00533, DEL746-750); conditions: EGFR (E746-A750del); 1 uM; read-out: Percent Control (%)
# T5 construct: purchased DiscoverX
# How it was run: as §1
# [6] = target: T6, scanMAX Kinase assay panel (Homo sapiens, UniProt P10721, A829P); conditions: KIT (A829P); 1 uM; read-out: Percent Control (%)
# T6 construct: purchased DiscoverX
# How it was run: as §1
# [7] = target: T7, scanMAX Kinase assay panel (Homo sapiens, UniProt Q9UKE5); conditions: TNIK; 1 uM; read-out: Percent Control (%)
# T7 construct: purchased DiscoverX
# How it was run: as §1
# [8] = target: T8, scanMAX Kinase assay panel (Homo sapiens, UniProt Q9BUB5); conditions: MKNK1; 1 uM; read-out: Percent Control (%)
# T8 construct: purchased DiscoverX
# How it was run: as §1
# T1 sequence (Q14012 whole entry): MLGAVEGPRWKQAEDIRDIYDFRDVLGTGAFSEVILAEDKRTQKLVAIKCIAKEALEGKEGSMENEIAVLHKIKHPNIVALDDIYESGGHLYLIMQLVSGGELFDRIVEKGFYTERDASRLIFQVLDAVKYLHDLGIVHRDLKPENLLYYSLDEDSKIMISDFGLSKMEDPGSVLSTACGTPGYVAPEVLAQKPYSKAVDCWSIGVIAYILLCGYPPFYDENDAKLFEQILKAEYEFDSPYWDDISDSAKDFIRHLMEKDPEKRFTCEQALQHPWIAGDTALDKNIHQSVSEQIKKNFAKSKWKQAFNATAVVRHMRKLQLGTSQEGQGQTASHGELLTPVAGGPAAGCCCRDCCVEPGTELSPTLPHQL
# T3 sequence (P36507 whole entry): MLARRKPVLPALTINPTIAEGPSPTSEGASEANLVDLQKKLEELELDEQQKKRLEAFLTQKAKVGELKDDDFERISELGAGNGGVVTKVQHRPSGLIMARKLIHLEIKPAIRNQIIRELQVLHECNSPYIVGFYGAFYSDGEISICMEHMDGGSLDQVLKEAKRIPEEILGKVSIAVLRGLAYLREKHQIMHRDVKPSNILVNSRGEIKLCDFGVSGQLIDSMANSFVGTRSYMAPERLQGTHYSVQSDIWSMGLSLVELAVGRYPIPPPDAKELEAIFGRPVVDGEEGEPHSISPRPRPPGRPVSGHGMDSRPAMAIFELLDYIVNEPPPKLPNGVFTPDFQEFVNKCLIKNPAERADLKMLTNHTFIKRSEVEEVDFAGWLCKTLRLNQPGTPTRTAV
# T8 sequence (Q9BUB5 whole entry): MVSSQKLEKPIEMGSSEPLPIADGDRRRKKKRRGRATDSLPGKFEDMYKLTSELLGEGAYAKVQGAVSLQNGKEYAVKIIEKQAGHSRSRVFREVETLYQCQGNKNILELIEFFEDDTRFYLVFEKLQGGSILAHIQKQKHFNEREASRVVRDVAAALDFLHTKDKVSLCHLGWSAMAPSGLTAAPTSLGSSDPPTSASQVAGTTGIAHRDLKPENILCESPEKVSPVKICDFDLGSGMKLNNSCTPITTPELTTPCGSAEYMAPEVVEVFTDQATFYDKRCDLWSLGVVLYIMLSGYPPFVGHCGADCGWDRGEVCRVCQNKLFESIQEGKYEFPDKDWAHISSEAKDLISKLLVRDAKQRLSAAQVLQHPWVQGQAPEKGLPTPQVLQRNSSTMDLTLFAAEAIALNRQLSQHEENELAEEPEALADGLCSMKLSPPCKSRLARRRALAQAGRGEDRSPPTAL
# T5 sequence (P00533 with tags, fused parts or gaps DEL746-750): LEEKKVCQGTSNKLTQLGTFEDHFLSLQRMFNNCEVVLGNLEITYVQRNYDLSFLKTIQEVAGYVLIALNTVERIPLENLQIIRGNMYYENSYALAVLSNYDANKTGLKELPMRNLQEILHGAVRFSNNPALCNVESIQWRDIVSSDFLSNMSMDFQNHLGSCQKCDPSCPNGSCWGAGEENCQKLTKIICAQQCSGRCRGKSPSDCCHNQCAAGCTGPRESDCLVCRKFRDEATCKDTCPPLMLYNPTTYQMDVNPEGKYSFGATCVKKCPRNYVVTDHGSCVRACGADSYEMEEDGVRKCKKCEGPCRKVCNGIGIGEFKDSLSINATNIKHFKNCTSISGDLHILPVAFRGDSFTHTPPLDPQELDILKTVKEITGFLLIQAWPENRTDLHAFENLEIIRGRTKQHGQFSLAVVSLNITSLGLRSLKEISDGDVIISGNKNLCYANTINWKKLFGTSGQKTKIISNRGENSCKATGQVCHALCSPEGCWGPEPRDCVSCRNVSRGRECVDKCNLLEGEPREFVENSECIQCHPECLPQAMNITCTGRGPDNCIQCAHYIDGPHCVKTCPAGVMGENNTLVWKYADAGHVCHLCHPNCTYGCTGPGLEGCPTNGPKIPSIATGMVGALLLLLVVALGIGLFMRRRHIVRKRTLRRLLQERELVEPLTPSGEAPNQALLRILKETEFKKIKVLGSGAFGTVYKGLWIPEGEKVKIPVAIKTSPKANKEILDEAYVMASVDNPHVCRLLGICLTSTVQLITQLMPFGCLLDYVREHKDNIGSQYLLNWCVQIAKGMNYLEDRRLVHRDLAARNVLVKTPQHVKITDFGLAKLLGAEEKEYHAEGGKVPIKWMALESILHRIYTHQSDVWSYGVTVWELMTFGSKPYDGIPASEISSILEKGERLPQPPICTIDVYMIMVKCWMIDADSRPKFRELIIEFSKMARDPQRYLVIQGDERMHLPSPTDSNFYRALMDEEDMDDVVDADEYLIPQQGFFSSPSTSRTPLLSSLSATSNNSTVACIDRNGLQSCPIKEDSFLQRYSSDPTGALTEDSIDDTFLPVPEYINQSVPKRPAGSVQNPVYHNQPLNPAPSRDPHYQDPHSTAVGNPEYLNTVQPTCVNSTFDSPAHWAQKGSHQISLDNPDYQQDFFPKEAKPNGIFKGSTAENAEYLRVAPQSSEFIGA
# T6 sequence (P10721 26-976 A829P): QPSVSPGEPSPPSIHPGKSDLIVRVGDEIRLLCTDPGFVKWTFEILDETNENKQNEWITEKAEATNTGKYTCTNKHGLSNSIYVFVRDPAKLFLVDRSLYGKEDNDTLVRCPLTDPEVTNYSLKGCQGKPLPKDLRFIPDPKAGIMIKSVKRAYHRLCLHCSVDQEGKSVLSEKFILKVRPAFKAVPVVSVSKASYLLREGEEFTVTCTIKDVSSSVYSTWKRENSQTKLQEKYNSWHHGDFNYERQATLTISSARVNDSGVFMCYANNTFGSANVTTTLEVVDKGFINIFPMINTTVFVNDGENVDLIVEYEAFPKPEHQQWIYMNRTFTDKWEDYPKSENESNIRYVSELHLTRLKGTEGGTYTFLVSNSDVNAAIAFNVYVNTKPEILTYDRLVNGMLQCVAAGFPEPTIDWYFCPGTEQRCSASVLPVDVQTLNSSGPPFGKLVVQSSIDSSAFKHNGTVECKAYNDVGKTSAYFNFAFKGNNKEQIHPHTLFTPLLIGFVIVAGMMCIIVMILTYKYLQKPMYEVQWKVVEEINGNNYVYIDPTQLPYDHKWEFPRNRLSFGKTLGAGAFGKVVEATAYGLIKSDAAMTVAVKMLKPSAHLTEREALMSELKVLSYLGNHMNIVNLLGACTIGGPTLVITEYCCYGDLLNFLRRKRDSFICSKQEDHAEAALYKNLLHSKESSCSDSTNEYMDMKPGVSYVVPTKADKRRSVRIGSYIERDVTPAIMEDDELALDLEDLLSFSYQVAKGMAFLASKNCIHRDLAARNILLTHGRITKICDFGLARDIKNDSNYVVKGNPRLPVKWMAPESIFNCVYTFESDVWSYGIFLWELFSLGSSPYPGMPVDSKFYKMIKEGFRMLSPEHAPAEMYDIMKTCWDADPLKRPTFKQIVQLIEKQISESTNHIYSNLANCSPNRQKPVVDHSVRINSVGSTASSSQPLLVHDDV
# T4 sequence (P51617 whole entry): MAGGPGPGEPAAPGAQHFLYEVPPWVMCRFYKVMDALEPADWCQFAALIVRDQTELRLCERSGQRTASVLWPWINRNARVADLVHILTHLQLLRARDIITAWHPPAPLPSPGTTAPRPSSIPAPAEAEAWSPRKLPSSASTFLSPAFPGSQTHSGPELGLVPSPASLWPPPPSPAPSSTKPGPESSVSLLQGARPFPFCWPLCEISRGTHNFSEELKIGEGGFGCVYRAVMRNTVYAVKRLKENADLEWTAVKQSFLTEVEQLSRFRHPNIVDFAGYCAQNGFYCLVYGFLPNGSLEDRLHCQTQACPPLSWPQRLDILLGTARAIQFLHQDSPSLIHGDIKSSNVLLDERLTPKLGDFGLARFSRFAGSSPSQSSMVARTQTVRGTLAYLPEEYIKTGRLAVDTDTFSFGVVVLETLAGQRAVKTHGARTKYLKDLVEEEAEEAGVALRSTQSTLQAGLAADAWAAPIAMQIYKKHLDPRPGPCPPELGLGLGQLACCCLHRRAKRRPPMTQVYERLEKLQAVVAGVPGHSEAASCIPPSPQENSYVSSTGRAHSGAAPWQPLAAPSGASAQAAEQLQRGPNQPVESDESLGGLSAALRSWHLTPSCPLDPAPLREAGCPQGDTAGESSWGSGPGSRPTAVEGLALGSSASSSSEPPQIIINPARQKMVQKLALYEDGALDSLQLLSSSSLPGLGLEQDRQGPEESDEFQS
smiles,measurement,setting,value
"Cc1ccc(C(=O)Nc2ccc(CN3CCN(C)CC3)c(C(F)(F)F)c2)cc1C#Cc1cnc2c(Nc3cnn(C)c3)cccn12 [Example 1, 4-methyl-3-((8-((1-methyl-1H-pyrazol-4-yl)amino)imidazo[1,2-a]pyridin-3-yl)ethynyl)-N-(4-((4-methylpiperazin-1-yl)methyl)-3-(trifluoromethyl)phenyl)benzamide]",remaining binding at 1 µM,[1],35%
same,remaining binding at 1 µM,[2],71%
same,remaining binding at 1 µM,[3],76%
same,remaining binding at 1 µM,[4],6%
same,remaining binding at 1 µM,[5],0%
same,remaining binding at 1 µM,[6],4%
same,remaining binding at 1 µM,[7],11%
same,remaining binding at 1 µM,[8],47%
"Cc1cn(-c2cc(NC(=O)c3ccc(C)c(C#Cc4cnc5c(Nc6cnn(C)c6)cccn45)c3)cc(C(F)(F)F)c2)cn1 [Example 12, 4-methyl-N-(3-(4-methyl-1H-imidazol-1-yl)-5-(trifluoromethyl)phenyl)-3-((8-((1-methyl-1H-pyrazol-4-yl)amino)imidazo[1,2-a]pyridin-3-yl)ethynyl)benzamide]",remaining binding at 1 µM,[1],73%
same,remaining binding at 1 µM,[2],100%
same,remaining binding at 1 µM,[3],88%
same,remaining binding at 1 µM,[4],100%
same,remaining binding at 1 µM,[5],8%
same,remaining binding at 1 µM,[6],29%
same,remaining binding at 1 µM,[7],17%
same,remaining binding at 1 µM,[8],100%
Cc1ccc(NC(=O)C2(C(=O)Nc3ccc(F)cc3)CC2)cc1C#Cc1cnc2c(Nc3cnn(C(C)C)c3)cccn12 [Example 78],remaining binding at 1 µM,[1],100%
same,remaining binding at 1 µM,[2],94%
same,remaining binding at 1 µM,[3],97%
same,remaining binding at 1 µM,[4],100%
same,remaining binding at 1 µM,[5],93%
same,remaining binding at 1 µM,[6],21%
same,remaining binding at 1 µM,[7],88%
same,remaining binding at 1 µM,[8],100%
